Data reported in US20240327353A1.
Like-named read-outs stand apart in the source and are kept apart here. Each block holds one molecule with its values, some of them ahead of it.

What was measured:
5-HT2AR = biological target: T1, 5-HT2AR (Homo sapiens, UniProt P28223); test: Radioligand binding (competitive displacement and saturation), cell membranes; details: for Ki: pKi 5-HT2AR
T1 construct: host or cells: HEK293, transient
Experimental: (§1) Transfections were performed for 48 hours.

5-HT2CR [1] = biological target: T2, 5-HT2CR (Homo sapiens, UniProt P28335); test: as above
T2 sequence (P28335 33-458): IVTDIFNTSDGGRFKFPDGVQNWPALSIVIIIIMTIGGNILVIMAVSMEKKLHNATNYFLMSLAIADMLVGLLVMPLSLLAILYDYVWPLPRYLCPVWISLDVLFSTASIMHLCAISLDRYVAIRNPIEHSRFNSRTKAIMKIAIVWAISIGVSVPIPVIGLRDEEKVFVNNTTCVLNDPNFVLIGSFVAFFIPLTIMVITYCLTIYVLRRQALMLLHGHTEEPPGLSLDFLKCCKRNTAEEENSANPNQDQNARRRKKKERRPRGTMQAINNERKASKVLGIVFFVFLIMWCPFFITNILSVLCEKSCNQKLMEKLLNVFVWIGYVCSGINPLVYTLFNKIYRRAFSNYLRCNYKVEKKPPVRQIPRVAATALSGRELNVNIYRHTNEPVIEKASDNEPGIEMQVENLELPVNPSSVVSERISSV
Experimental: (§2) All cells were grown adherently in 10 cm plates in a humidified incubator kept at 37° C. and 5% carbon dioxide. […] Transient transfections were used to express 5-HT2A, 5-HT2C, α1A- or α1B-adrenergic receptors, whereas 5-HT7(a)Rs were stably expressed in HEK293 cells. H1Rs were transiently expressed, and D2Rs were stably expressed in CHO cells.
(§3) Transient transfections were performed on cells in the log growth phase (70-90% confluence). […] Each solution was mixed by inversion before combining, mixed by inversion again, and incubated at 37° C. for 30 minutes. Cells were then washed with 1 mL 1×PBS, followed by the gentle addition of 5 mL of transfection cocktail and 5 mL of cell culture medium with 5% (final) dialyzed FBS. Transfections were performed for 48 hours.
(§4) The affinity of ligands was determined via radioligand binding techniques using human recombinant receptors expressed in mammalian clonal cells.
(§5) Saturation binding experiments were performed on membranes expressing 5-HT2A, 5-HT2B, 5-HT2C, or H1Rs in triplicate across 8 concentrations. Competition binding assays were performed in at least triplicate with approximate Kd concentrations of radioligand. Total and nonspecific binding were determined in octet. […] Serial dilutions of unlabeled compound were made in assay buffer at 2.5× the final concentration using 10 mM DMSO stocks (final [DMSO]≤1%). Assays were terminated using rapid filtration via Whatman GF/B Fired Filters (Brandel Inc., Gaithersburg, MD) soaked in 0.3% (w/v) PEI, using an automated Tomtec Harvester 96 (Hamden, CT).
(§6) Filters were washed with 50 mM Tri-HCl (pH=7.4, 4° C.) before being oven dried and placed into scintillation vials containing 1 mL SX18-4 ScintiVerse^TM BD Cocktail (Fisher Chemical, Fair Lawn, NJ).
(§7) GraphPad Prism (La Jolla, CA) version 9.1.1 was used to analyze all experimental data in this work. To analyze data from saturation binding studies, the radioligand counts per minute (cpm) were normalized to fmol/mg protein bound and then fit the data to a ‘specific binding with hill slope’ model. For competitive radioligand displacement studies, a baseline correction was performed by subtracting the mean nonspecific binding value from the radioligand binding values with and without competitor to obtain specific binding values. Specific binding values were then normalized such that total binding in the absence of competitor represented 100% radioligand binding, and the radioactivity associated with each concentration of competitor was a percentage of total binding. The normalized data was then fit to the ‘one-site Fit Ki’ nonlinear regression model.

5-HT2BR [2] = biological target: T3, 5-HT2BR (Homo sapiens, UniProt P41595); test: as above
T3 sequence (P41595 whole entry): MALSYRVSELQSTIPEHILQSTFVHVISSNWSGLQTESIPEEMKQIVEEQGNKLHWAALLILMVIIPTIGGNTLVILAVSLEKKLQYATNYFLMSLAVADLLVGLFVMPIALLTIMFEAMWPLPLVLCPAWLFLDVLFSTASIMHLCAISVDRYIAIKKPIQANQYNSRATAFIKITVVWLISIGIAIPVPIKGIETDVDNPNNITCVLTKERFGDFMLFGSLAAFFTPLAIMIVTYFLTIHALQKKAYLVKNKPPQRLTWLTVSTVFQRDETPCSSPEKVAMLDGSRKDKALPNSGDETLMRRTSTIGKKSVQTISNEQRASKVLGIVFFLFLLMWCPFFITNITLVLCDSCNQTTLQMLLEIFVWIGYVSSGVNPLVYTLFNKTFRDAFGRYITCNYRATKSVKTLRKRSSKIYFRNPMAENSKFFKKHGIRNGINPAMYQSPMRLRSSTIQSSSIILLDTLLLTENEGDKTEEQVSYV
Experimental: as §2, §3, §4, §5, §6, §7

5-HT2BR [3] = biological target: T3, 5-HT2BR; test: biochemical
Experimental: as §2, §3, §4, §5, §6, §7

H1R = biological target: T4, H1R (Homo sapiens, UniProt P35367); test: Radioligand binding (competitive displacement and saturation), cell membranes
T4 construct: host or cells: CHO, transient
T4 sequence (P35367 whole entry): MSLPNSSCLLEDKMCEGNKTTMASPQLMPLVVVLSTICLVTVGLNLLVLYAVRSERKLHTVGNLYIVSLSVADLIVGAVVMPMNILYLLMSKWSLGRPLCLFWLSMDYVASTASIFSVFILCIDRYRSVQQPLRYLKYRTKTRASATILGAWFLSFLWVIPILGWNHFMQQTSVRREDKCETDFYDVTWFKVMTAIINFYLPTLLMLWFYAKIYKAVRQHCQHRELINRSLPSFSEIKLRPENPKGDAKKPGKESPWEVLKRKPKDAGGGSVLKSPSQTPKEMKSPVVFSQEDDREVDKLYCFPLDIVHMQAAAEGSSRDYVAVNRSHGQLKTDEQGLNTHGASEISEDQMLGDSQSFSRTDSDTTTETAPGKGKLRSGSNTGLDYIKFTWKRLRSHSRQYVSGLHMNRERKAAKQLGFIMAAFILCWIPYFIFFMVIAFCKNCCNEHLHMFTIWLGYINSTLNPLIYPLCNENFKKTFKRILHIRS
Experimental: as §1

5-HT2CR [4] = biological target: T2, 5-HT2CR; test: biochemical
Experimental: as §2, §3, §4, §5, §6, §7

human wild-type 5-HT2C = human wild-type 5-HT2C (Homo sapiens, UniProt P28335); test: IP-One HTRF IP1 accumulation assay
Experimental: as §3
The pharmacological parameters (e.g., pEC50, pKb, pIC50, Imax) of agonist and antagonist-mediated signal transduction through Gaq-coupled 5-HT2A, 5-HT2B, 5-HT2C, and H1Rs was quantified using the Cisbio (Bedford, MA) IP-One homogeneous time resolved fluorescence (HTRF) immunoassay. The protocol used was consistent with that recommended by the manufacturer for suspension cells in 384-well plate format, with minor modifications. […] Cells (˜2,000 cells/μL, >90% viability, determined by the Corning® Cell Counter) were resuspended in the manufacturer's stimulation buffer (pH=7.4, 37° C.) modified to include 0.1% bovine serum albumin stabilizer (PerkinElmer, part #: CR84-100) and added to a white 384-well OptiPlate (PerkinElmer). Next, stimulation buffer, or 2× compound diluted in stimulation buffer, was added to each well. […] Cells were then incubated in the dark for two hours at 37° C. to ensure equilibrium was obtained. Plates were covered with an aluminum foil seal to prevent evaporation.
Following incubation, the manufacturer's lysis solution (detection buffer) containing inositol monophosphate (IP1) covalently bound to a fluorescent acceptor dye (d2) was added to each well. This process generated a homogenous mixture of cellular and d2-labeled IP1, in a ratio dependent on the concentration- and activity-dependent efficacy of test ligands to modulate cellular IP1 levels. Next, detection buffer containing an anti-IP1 antibody covalently bound to a terbium-cryptate, which serves as a fluorescent acceptor, was added to each well. A one-hour incubation at room temperature was used to allow competitive interactions between cellular and d2-labeled IP1 to equilibrate with anti-IP1-cryptate. Time-resolved fluorescent resonance energy transfer (TR-FRET) was then quantified by a Synergy H1 plate reader equipped with a HTRF filter cube (BioTek).
The functional activity of each compound was determined by incubating cells expressing recombinant receptors with or without a compound of interest in parallel with well containing only buffer and 8 known concentrations of IP1 to generate a standard curve for each experiment. The IP1 concentration in cell-containing wells was then interpolated using nonlinear regression and the ‘log(inhibitor) vs. response (three parameters)’ model in Prism. To control for variation between assays, the resulting concentrations were transformed into molar units and change from basal was calculated using the following equation (Equation 1), where B is the basal concentration of IP, and Y is the concentration of IP generated by cells incubated with compound.
The same model was used to calculate the IC50 of inverse agonists in the absence of A. In contrast, the EC50 was derived from a log([agonist]) vs. response-variable slope (four parameters)’ model to simultaneously obtain K. Each Kb, IC50, and EC50 value was logarithmically transformed into the pKb, pIC50, and pEC50, respectively for ease of presentation and statistical analyses.

5-HT2CR [5] = biological target: T2, 5-HT2CR
Experimental: as §2, §3, §4, §5, §6, §7

5-HT2BR [6] = biological target: T3, 5-HT2BR
Experimental: as §2, §3, §4, §5, §6, §7

D231F^5.35 5-HT2AR = D231F^5.35 5-HT2AR (Homo sapiens, UniProt P28223, D231F); test: Exploratory saturation radioligand binding at point-mutated 5-HT2AR; details: membranes of transfected HEK293 cells (FIGS. 14A-14D)
Sequence of D231F^5.35 5-HT2AR (P28223 whole entry D231F): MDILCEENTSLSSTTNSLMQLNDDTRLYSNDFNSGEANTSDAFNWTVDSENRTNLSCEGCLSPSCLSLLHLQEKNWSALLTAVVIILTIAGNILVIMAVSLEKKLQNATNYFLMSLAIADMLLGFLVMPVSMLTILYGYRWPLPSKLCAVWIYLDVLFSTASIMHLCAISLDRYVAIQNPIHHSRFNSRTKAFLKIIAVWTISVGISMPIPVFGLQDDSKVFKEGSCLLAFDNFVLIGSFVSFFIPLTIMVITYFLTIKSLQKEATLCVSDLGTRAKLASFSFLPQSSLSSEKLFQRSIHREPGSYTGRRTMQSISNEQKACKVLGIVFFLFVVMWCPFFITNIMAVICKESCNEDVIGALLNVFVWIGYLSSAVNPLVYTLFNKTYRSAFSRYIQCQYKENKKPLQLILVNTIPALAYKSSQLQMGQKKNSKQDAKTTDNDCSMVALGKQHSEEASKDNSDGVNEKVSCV
Experimental: as §5
Site directed mutagenesis experiments were performed using 5′-phosphorylated, PAGE-purified custom primers (Life Technologies, Carlsbad CA) and the Quikchange Site-Directed Mutagenesis kit (Agilent, Santa Clara CA) according to the manufacturer's protocol. Reactions were performed in thin-walled PCR tubes using a TOne Gradient 96 Thermal Cycler (Biometra). Following Dpn1 digestion, 2 μL of the PCR product mixture was transformed into 50 μL XL1-Blue competent cells using a 45 second pulse of heat in a 42° C. water bath. The transformed bacteria were then incubated for 1 hour at 37° C. in 0.5 mL of LB broth before being plated on LB-agar plates and incubated overnight at 37° C. […]

[7] = displacement of [^3H]ketanserin, mean of n independent experiments, ± SD where n ≥ 5

T1 sequence (P28223 whole entry): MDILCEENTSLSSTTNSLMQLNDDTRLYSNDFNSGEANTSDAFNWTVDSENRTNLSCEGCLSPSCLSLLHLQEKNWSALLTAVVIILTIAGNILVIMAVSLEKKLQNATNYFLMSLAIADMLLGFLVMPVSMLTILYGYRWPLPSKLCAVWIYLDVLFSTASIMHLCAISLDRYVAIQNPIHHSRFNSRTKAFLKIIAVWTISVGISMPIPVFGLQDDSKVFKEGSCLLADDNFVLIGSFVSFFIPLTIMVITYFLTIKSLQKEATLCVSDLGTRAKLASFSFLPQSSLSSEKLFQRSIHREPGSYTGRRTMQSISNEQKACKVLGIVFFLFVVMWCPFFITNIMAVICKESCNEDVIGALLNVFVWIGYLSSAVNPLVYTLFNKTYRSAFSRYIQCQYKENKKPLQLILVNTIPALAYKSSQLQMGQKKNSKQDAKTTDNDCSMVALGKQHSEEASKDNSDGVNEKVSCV

Structure (SMILES): CN(C)[C@@H]1Cc2ccccc2[C@@H](c2cccc(-c3ccncc3)c2)C1 (single isomer, unassigned) [(2R,4S)-2e, Trans-4-(3-(pyridin-4-yl)phenyl)-N,N-dimethyl-1,2,3,4-tetrahydronaphthalen-2-amine]
pKi 5-HT2AR (5-HT2AR): 6.06^(2) 6.14-5.98 8.13^(3) 8.51-7.82 5.81^(2) 6.01-5.62 7.36^(2) 7.48-7.24 | pKi 5-HT2CR (5-HT2CR [1]): 5.90^(2) 5.99-5.80 7.37^(3) 7.44-7.27 5.61^(2) 5.69-5.54 6.26^(2) 6.42-6.10

Structure (SMILES): CN(C)c1ccc(-c2cccc([C@@H]3C[C@H](N(C)C)Cc4ccccc43)c2)cc1 (single isomer, unassigned) [(2R,4R)-3k, Cis-4-(4′-(dimethylamino)-[1,1′-biphenyl]-3-yl)-N,N-dimethyl-1,2,3,4-tetrahydro-naphthalen-2-amine]
pKi 5-HT2BR (5-HT2BR [2]): 5.52^(2) 5.68-5.37 7.10 ± 0.21^(5) 7.40-6.82 5.97^(2) 6.08-5.87 5.97^(2) 6.09-5.86

Structure (SMILES): CN(C)[C@@H]1Cc2ccccc2[C@H](c2cccc(Br)c2)C1 (single isomer, unassigned) [(2S,4S)-3a, Cis-4-(3-bromophenyl)-N, N-dimethyl-1,2,3,4-tetrahydronaphthalen-2-amine]
pKi 5-HT2AR (5-HT2AR): 6.40^(2) 6.41-6.40 7.50^(3) 7.74-7.33 | pKi 5-HT2CR (5-HT2CR [1]): 6.71^(3) 6.93-6.47 7.24^(4) 7.44-7.06 | Ki (5-HT2BR [3]): 389 nM

Structure (SMILES): CN(C)[C@@H]1Cc2ccccc2[C@H](c2cccc(-c3ccncc3)c2)C1 (single isomer, unassigned) [(2R,4R)-3e, Cis-4-(3-(pyridin-4-yl)phenyl)-N,N-dimethyl-1,2,3,4-tetrahydronaphthalen-2-amine]
Ki (5-HT2AR; [7]): 43.7 nM | Ki (H1R; pKi H1R, displacement of [^3H]mepyramine, mean of n independent experiments, ± SD where n ≥ 5): 22.4 nM | pKi 5-HT2CR (5-HT2CR [1]): 5.90^(2) 5.99-5.80 7.37^(3) 7.44-7.27 5.61^(2) 5.69-5.54 6.26^(2) 6.42-6.10

Structure (SMILES): CN(C)[C@@H]1Cc2ccccc2[C@@H](c2cccc(-c3cccs3)c2)C1 (single isomer, unassigned) [(2S,4R)-2c, Trans-4-(3-(thiophen-2-yl)phenyl)-N,N-dimethyl-1,2,3,4-tetrahydronaphthalen-2-amine]
Ki (5-HT2CR [4]): 3.8 nM | IC50 (human wild-type 5-HT2C): 251 nM | inverse agonist efficacy (Imax) at 5-HT2CRs (human wild-type 5-HT2C; below basal): 58% | Ki (5-HT2AR): 2.14 nM | Ki (H1R; read-out: pKi H1R (converted)): 1.15 nM | Ki (5-HT2CR [1]; pKi at the 5-HT2CR, single experiment excluded from the reported data, excluded: excessive or incomplete radioligand displacement): 0.832 nM | Ki (5-HT2BR [3]): 79.4 nM

Structure (SMILES): CN(C)[C@@H]1Cc2ccccc2[C@H](c2cccc(-c3ccncc3)c2)C1 (single isomer, unassigned) [(2S,4S)-3e, Cis-4-(3-(pyridin-4-yl)phenyl)-N,N-dimethyl-1,2,3,4-tetrahydronaphthalen-2-amine]
pKi 5-HT2AR (5-HT2AR): 6.06^(2) 6.14-5.98 8.13^(3) 8.51-7.82 5.81^(2) 6.01-5.62 7.36^(2) 7.48-7.24 | pKi 5-HT2CR (5-HT2CR [1]): 5.90^(2) 5.99-5.80 7.37^(3) 7.44-7.27 5.61^(2) 5.69-5.54 6.26^(2) 6.42-6.10

Structure (SMILES): CN(C)[C@H]1Cc2ccccc2[C@H](c2cccc(-c3cccs3)c2)C1 [(2R,4S)-2c, (2R,4S)-trans-4-(3-(thiophen-2-yl)phenyl)-N,N-dimethyl-1,2,3,4-tetrahydronaphthalen-2-amine]
agonist activity at 5-HT2CRs, concentration-response (human wild-type 5-HT2C; FIG. 7B): no consistent effect on IP1-accumulation | Ki (5-HT2AR): 19.5 nM | pKi H1R (H1R): 6.90 | Ki (5-HT2CR [5]): 33.1 nM | Ki (5-HT2BR [6]): 214 nM

Structure (SMILES): CN(C)[C@@H]1Cc2ccccc2[C@H](c2cccc(-c3ccccc3F)c2)C1 (single isomer, unassigned) [(2R,4R)-3g, Cis-4-(2′-fluoro-[1,1′-biphenyl]-3-yl)-N,N-dimethyl-1,2,3,4-tetrahydronaphthalen-2-amine]
Ki (5-HT2AR; [7]): 2.04 nM | pKi H1R (H1R): 6.93^(2) 7.02-6.84 8.75^(4) 9.1-8.62 ND 6.54^(2) 6.67-6.40 | pKi 5-HT2BR (5-HT2BR [2]): 7.36^(2) 7.36-7.35 7.09^(3) 7.23-6.90 6.53^(3) 6.71-6.30 6.33^(2) 6.49-6.17

Structure (SMILES): CN(C)c1ccc(-c2cccc([C@@H]3C[C@H](N(C)C)Cc4ccccc43)c2)cc1 (single isomer, unassigned) [(2S,4S)-3k, Cis-4-(4′-(dimethylamino)-[1,1′-biphenyl]-3-yl)-N,N-dimethyl-1,2,3,4-tetrahydro-naphthalen-2-amine]
pKi 5-HT2BR (5-HT2BR [2]): 5.52^(2) 5.68-5.37 7.10 ± 0.21^(5) 7.40-6.82 5.97^(2) 6.08-5.87 5.97^(2) 6.09-5.86

Structure (SMILES): CN(C)[C@@H]1Cc2ccccc2[C@H](c2cccc(-c3ccccc3F)c2)C1 (single isomer, unassigned) [(2S,4S)-3g, Cis-4-(2′-fluoro-[1,1′-biphenyl]-3-yl)-N,N-dimethyl-1,2,3,4-tetrahydronaphthalen-2-amine]
Ki (5-HT2AR; [7]): 40.7 nM | pKi 5-HT2BR (5-HT2BR [2]): 7.36^(2) 7.36-7.35 7.09^(3) 7.23-6.90 6.53^(3) 6.71-6.30 6.33^(2) 6.49-6.17

Structure (SMILES): O=C(CCCN1CCC2(CC1)C(=O)NCN2c1ccccc1)c1ccc(F)cc1 [[^3H]Spiperone]
specific binding to D231F^5.35 5-HT2ARs (D231F^5.35 5-HT2AR): no specific binding is detected

Ki (5-HT2CR [5]): 151 nM | Ki (5-HT2BR [6]): 407 nM
Structure (SMILES): CN(C)[C@@H]1Cc2ccccc2[C@H](c2cccc(-c3ccccc3)c2)C1 [(2S,4S)-3f, (2S,4S)-cis-4-([1,1′-biphenyl]-3-yl)-N,N-dimethyl-1,2,3,4-tetrahydronaphthalen-2-amine]

Structure (SMILES): CN(C)c1ccc(-c2cccc(C3CC(N(C)C)Cc4ccccc43)c2)cc1 [(2R,4S)-2k, Trans-4-(4′-(dimethylamino)-[1,1′-biphenyl]-3-yl)-N,N-dimethyl-1,2,3,4-tetra-hydronaph-thalen-2-amine]
pKi 5-HT2BR (5-HT2BR [2]): 5.52^(2) 5.68-5.37 7.10 ± 0.21^(5) 7.40-6.82 5.97^(2) 6.08-5.87 5.97^(2) 6.09-5.86
